Experimental data taken from paper PMC5826244 (OncoTargets and therapy, 2018).

What was measured:
[1] = system: LH-RH-I receptors expressed in rat pituitaries; conditions: cited from earlier work
[2] = target: T1, LH-RH-I receptors, membranes of human UM models (Homo sapiens, UniProt P30968); assay: Radioligand binding / ligand competition, human UM samples; conditions: increasing concentrations 10^−12–10^−6 M; data not shown
T1 sequence (P30968 1-328): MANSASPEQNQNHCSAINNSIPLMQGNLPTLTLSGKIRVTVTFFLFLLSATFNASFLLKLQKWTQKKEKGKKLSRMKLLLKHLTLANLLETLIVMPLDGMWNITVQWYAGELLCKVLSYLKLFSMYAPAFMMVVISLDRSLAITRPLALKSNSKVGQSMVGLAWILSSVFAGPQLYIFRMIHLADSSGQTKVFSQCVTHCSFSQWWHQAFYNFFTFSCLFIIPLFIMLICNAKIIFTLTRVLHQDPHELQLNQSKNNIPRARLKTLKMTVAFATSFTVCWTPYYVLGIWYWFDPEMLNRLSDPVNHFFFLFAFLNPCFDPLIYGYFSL

Row | displacement of radiolabeled [D-Trp6]LH-RH binding [2] | Substance | binding affinity to LH-RH-I receptors [1]
1 | – | [^125I][D-Trp[6]]LH-RH | high affinity binding
2 | completely displaced | buserelin | –
